According to PubChem BioAssay (NCI):
Several values for one entry are separate records, joined by “and”; a condition that tells them apart may be missing. Identical values can stand only once.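 Where inhibition never reached the appropriate level, the endpoint shown equals the highest concentration tested. Otherwise, values were interpolated linearly from a five-concentration, 48-hour dose response in 96-well plates. GI50 marks 50% less growth. TGI: total growth inhibition.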

Legend:
Assay in all cases: NCI-60 cell line screen, 48 h
K-562 leukemia = test system: K-562 leukemia
MDA-N = test system: MDA-N
UACC-62 melanoma = test system: UACC-62 melanoma
UACC-257 melanoma = test system: UACC-257 melanoma
SK-OV-3 ovarian = test system: SK-OV-3 ovarian
NCI/ADR-RES ovarian = test system: NCI/ADR-RES ovarian
MALME-3M melanoma = test system: MALME-3M melanoma
SR leukemia = test system: SR leukemia
SW-620 colon = test system: SW-620 colon
DU-145 prostate = test system: DU-145 prostate

| SMILES | TGI (K-562 leukemia) | TGI (MDA-N) | TGI (UACC-62 melanoma) | TGI (UACC-257 melanoma) | TGI (SK-OV-3 ovarian) | TGI (NCI/ADR-RES ovarian) | TGI (MALME-3M melanoma) | TGI (SR leukemia) | TGI (SW-620 colon) | TGI (DU-145 prostate) | GI50 (MDA-N) | GI50 (UACC-62 melanoma) | GI50 (UACC-257 melanoma) | GI50 (MALME-3M melanoma) | GI50 (DU-145 prostate) |
| --- | --- | --- | --- | --- | --- | --- | --- | --- | --- | --- | --- | --- | --- | --- | --- |
| CCOC(=O)/C(C#N)=C(/NNc1ccccc1)c1ccncc1C(=O)O | > 100 µM | > 100 µM | > 100 µM | > 100 µM | > 100 µM | > 100 µM | > 100 µM | > 100 µM | > 100 µM | > 100 µM | – | – | – | – | – |
| Cc1nn(C)c2nc3ccc(Cl)cc3c(-c3ccccc3)c12 | > 100 µM | > 100 µM | > 100 µM | > 100 µM | > 100 µM | > 100 µM | > 100 µM | > 100 µM | > 100 µM | > 100 µM | – | – | – | – | – |
| CCOC(=O)C(NC(=O)CC)(Nc1ccc(S(=O)(=O)Nc2nc(C)cc(C)n2)cc1)C(F)(F)F (centres undefined) | > 100 µM | > 100 µM | > 100 µM | > 100 µM | > 100 µM | > 100 µM | > 100 µM | > 100 µM | > 100 µM | > 100 µM | – | – | – | – | – |
| CC(C)(C)OC(=O)NCC(=O)NC1C/C(=N\O)c2sccc21 (centres undefined) | > 100 µM | > 100 µM | > 100 µM | > 100 µM | > 100 µM | > 100 µM | > 100 µM | > 100 µM | > 100 µM | > 100 µM | – | – | – | – | – |
| CC(C)C(C/C=C1/CC(CO)(COC(=O)C2CCCCC2)OC1=O)C(C)C (centres undefined) | > 100 µM | 38.8 µM | > 100 µM | 78.7 µM | > 100 µM | 42.7 µM | 42.3 µM | > 100 µM | 42.5 µM | 28.8 µM | – | – | – | – | – |
| COC(=O)/C=C/c1cc(OC)c2oc(-c3ccc(OC)c(OC)c3)c(C(=O)OC)c2c1 | > 100 µM | > 100 µM | > 100 µM | > 100 µM | > 100 µM | > 100 µM | > 100 µM | > 100 µM | > 100 µM | > 100 µM | – | – | – | – | – |
| CN(CCc1ccc(Cl)c(Cl)c1)CCN(C)CCN1CCCC1 | 7.27 µM | 3.74 µM | 3.74 µM | 5.04 µM | 54.3 µM | > 72.7 µM | 15 µM | 17.2 µM | 31.2 µM | 86.4 µM | – | – | – | – | – |
| Cc1ccc(OCC2OC(n3cnc4c(Cl)ncnc43)CC2Oc2ccc(C)cc2)cc1 (centres undefined) | > 23.9 µM and 61.8 µM | 11.2 µM and 35.7 µM | 25.9 µM and > 59 µM | 18.5 µM and 37.1 µM | > 81.1 µM | 36.5 µM and 40.8 µM | 55.8 µM and 8.66 µM | > 22.7 µM | > 55.4 µM | 3.65 µM and 28.1 µM | 4.63 µM and 16.6 µM | 9.01 µM and 22.8 µM | 6.24 µM and 16 µM | 20.2 µM and 2.68 µM | 1.96 µM and 13.3 µM |
| Cn1c2c(c3ccccc31)CCN1C(=O)C3SC21C1C(=O)N(c2ccccc2)C(=O)C31 (centres undefined) | > 100 µM | > 100 µM | > 86.3 µM | > 69.2 µM | > 100 µM | > 100 µM | > 100 µM | > 100 µM | > 100 µM | > 100 µM | – | – | – | – | – |
| Cc1cc(O)ccc1C1(c2ccc(F)cc2)OC(=O)c2ccccc21 (centres undefined) | > 72.9 µM | 25 µM | 16.9 µM | 26.7 µM | 14.2 µM | 2.25 µM | 26.8 µM | > 76.8 µM | 25.5 µM | 16.1 µM | – | – | – | – | – |
| O=C(/C=C(\O)c1ccccc1)/C(=C/C(=O)c1ccccc1)NN=C(c1ccccc1)c1ccccc1 | > 100 µM | > 100 µM | 36.7 µM | 73.1 µM | 92.5 µM | 77.6 µM | > 100 µM | > 100 µM | > 100 µM | > 100 µM | – | – | – | – | – |
| C=CC(C)(C)c1cc([C@@H]2COc3cc(O)ccc3C2=O)c(O)c(O)c1OC | > 100 µM | 51 µM | 34.4 µM | > 100 µM | 61 µM | 64.3 µM | 93.6 µM | > 100 µM | > 100 µM | 46.2 µM | – | – | – | – | – |
| COc1cc(/C=N\NC(=O)C[N+](C)(C)C)cc(OC)c1OC | > 10 µM | > 10 µM | > 10 µM | > 10 µM | > 10 µM | > 10 µM | > 10 µM | > 10 µM | > 10 µM | > 10 µM | – | – | – | – | – |
| N=C(N)SCCCN | > 66.8 µM | 26 µM | 35 µM | 26 µM | 73.4 µM | > 62.1 µM | 29.1 µM | 23.5 µM | > 100 µM | 51.1 µM | – | – | – | – | – |
| COC1=CC(=O)c2c(O)c3c(c(O)c2C1=O)C[C@](C)(O)C[C@@H]3O | 19.4 µM | 3.35 µM | 4.66 µM | 5.28 µM | 41.6 µM | 29 µM | 2.59 µM | 12.1 µM | 14 µM | 16 µM | – | – | – | – | – |
| CC(NNC(=O)c1ccncc1)c1ccc(Cl)c(Cl)c1 (centres undefined) | > 100 µM | > 100 µM | > 100 µM | > 100 µM | > 100 µM | > 100 µM | > 100 µM | > 100 µM | > 100 µM | > 100 µM | – | – | – | – | – |
| O=C(O)c1cc(Cl)cc2c1NC1(N2)C(=O)Nc2ccccc21 (centres undefined) | > 100 µM | > 100 µM | > 100 µM | > 100 µM | > 100 µM | > 100 µM | > 100 µM | > 100 µM | > 100 µM | > 100 µM | – | – | – | – | – |
| CC(=O)CC(C)(C)NC(=O)[C@@]1(O)CC[C@H]2[C@@H]3CCC4=CC(=O)CC[C@@H]4[C@H]3CC[C@@]21C | > 100 µM | > 100 µM | > 100 µM | > 100 µM | > 100 µM | > 100 µM | > 100 µM | > 100 µM | > 100 µM | > 100 µM | – | – | – | – | – |
| CCOC(=O)c1c(N2CCOCC2)[nH]c(=O)c(C(c2cccs2)c2c(O)c(C(=O)OCC)c(N3CCOCC3)[nH]c2=O)c1O | > 100 µM | > 100 µM | > 100 µM | > 100 µM | > 100 µM | > 100 µM | > 100 µM | > 100 µM | > 100 µM | > 100 µM | – | – | – | – | – |
| CCn1c2ccc(O)c(C(=O)OC)c2c2cc3ccccc3c(O)c21 | > 100 µM | 72.4 µM | > 100 µM | > 100 µM | 43.8 µM | 57.2 µM | 20.7 µM | 57.6 µM | – | 40.8 µM | – | – | – | – | – |
| N#CC1(c2ccccc2)CCN(C2(c3ccccc3)CCCCC2)CC1 | > 100 µM | > 100 µM | > 100 µM | > 100 µM | > 100 µM | > 100 µM | > 100 µM | > 100 µM | > 100 µM | > 100 µM | – | – | – | – | – |
| O=c1[nH]c2cc3cccnc3c(Cl)c2nc1CBr | > 100 µM | 34.9 µM | 25.2 µM | 54.9 µM | 65.5 µM | 53.3 µM | 65.5 µM | 73.3 µM | 32.5 µM | 30.4 µM | – | – | – | – | – |
| O=C1NC2CCCCC2N=C1/C(C(=O)c1ccccc1)=C(\O)c1ccccc1 (centres undefined) | > 100 µM | > 100 µM | 68.9 µM | > 100 µM | 84.8 µM | > 100 µM | > 100 µM | 92.3 µM | > 100 µM | > 100 µM | – | – | – | – | – |
| O=C1c2ccccc2-c2nc(-c3ccccc3)cc3c2c1nc1ccccc13 | > 100 µM | 3.67 µM | 9.7 µM | 30.6 µM | 55.2 µM | 47.1 µM | 12.8 µM | 11.9 µM | 36.6 µM | 29.6 µM | – | – | – | – | – |
| COc1ccc(/C(=N/Nc2nc3ccccc3[nH]2)C(=O)O)cc1 | > 100 µM | > 100 µM | > 100 µM | > 100 µM | > 100 µM | > 100 µM | > 100 µM | > 100 µM | > 100 µM | > 100 µM | – | – | – | – | – |
| O=C1CCC2(O)C3Cc4ccc(Oc5nnnn5-c5ccccc5)c5c4C2(CCN3CC2CC2)C1O5 (centres undefined) | > 100 µM | 51 µM | 76 µM | 45.7 µM | > 100 µM | > 100 µM | 32.7 µM | 42.9 µM | > 100 µM | > 100 µM | – | – | – | – | – |
| Clc1nc(Nc2nc3ccccc3[nH]2)nc(Cl)c1Cc1ccccc1 | > 100 µM | > 100 µM | > 100 µM | > 100 µM | > 100 µM | > 100 µM | > 100 µM | > 100 µM | > 100 µM | > 100 µM | – | – | – | – | – |
| c1csc(-c2csc(-c3ccsc3)c2)c1 | > 100 µM | > 100 µM | > 100 µM | > 100 µM | > 100 µM | > 100 µM | > 100 µM | > 100 µM | > 100 µM | > 100 µM | – | – | – | – | – |
| CC1(C)CCCCCCCCCC(C)(CCCCCCCCCCCCO)C1=O (centres undefined) | 54.3 µM | 33.7 µM | 33.7 µM | 29.9 µM | 33.2 µM | 32.6 µM | 30.6 µM | > 100 µM | 32.5 µM | 32 µM | – | – | – | – | – |
